Test results: patent US20050004005A1, “Methods of treating diseases responsive to Induction of Apoptosis” (priority 2003, published 2005)

Legend:
caspase cascade [1] = settings: as described in Ser. No. 10/164,705 and 60/433,953; cited from earlier work
caspase cascade [2] = assay: Activation of the caspase cascade and induction of apoptosis in cells (earlier Cai et al. applications); type: cell-based; settings: typically
Tail Interacting Protein = biological target: T1, Tail Interacting Protein (Homo sapiens, UniProt O60664, I56V/V275A); assay: Photo-affinity radiolabeling of T47D cytosol, two-dimensional gel and autoradiography; type: binding; settings: 200 nM compound, 300 μg T47D cytosol, UV 254 nm 10 minutes
T1 construct: This supernatant is T47D cytosol; endogenous in cells; host or cells: T47D breast cancer cells
T1 sequence (O60664 1-434 I56V/V275A): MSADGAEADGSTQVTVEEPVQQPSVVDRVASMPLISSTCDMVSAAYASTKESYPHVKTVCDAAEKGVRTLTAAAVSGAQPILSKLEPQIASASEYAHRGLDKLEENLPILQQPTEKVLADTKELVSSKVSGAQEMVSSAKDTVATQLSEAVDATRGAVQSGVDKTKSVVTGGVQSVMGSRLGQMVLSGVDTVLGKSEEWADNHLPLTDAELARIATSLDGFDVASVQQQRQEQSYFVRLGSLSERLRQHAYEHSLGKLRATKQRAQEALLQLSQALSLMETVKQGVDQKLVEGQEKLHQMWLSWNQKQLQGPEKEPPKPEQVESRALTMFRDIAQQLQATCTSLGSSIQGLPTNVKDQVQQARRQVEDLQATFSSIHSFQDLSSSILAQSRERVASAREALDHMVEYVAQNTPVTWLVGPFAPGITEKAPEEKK
Experimental: Isolation of Tail Interacting Protein from Cell Extracts by Photo-affinity Radiolabeling: T47D breast cancer cell line was grown in RPMI 1640 medium containing 25 mM Hepes and L-glutamine (Gibco) supplemented with 10% FCS and penicillin/streptomycin. 8×10^6 T47D cells in 25 mL medium were plated on a 100 mm dish and grown overnight in RPMI medium supplemented with 10% FCS and penicillin/streptomycin. Cells were scraped with Cell lifter (Fisher) into a conical tube and centrifuged for 5 minutes at 450×g. Cells were washed one time with 1 mL PBS (1,160×g for 3 minutes) and then resuspended in 0.25 mL Cell Lysis Buffer (CLB) (10 mM HEPES, pH 7.2, 10 mM NaCl, 1 mM KH2PO4, 5 mM NaHCO3, 1 mM CaCl2, 0.5 mM MgCl2, 5 mM EDTA) plus 0.1% Protease Inhibitor Cocktail (Sigma). Cells were allowed to swell 5 minutes at room temperature and then homogenized using Dounce homogenizer and Type A pestle (tight) 50 times on ice. After centrifugation at 2,200×g, for 5 minutes, 4° C., the supernatant was spun at 108,000×g, for 40 minutes at 4° C. This supernatant is T47D cytosol. Protein concentration is determined by BioRad DC assay.
300 μg T47D cytosol in 100 μL CLB was added in the well of a 96-well plate. […]

GST-Tip47 = biological target: T2, GST-Tip47 (Homo sapiens, UniProt O60664, I56V/V275A); assay: Binding of tritiated compound to GST-Tip47 immobilized on anti-GST Protein A Sepharose, scintillation counting; settings: 2 μM compound, 1 hour room temperature, TBS pH 8.0, FIG. 1A
T2 construct: Full-length Tip47 cDNA was cloned into the pGEX-4T-1; made in house; host or cells: E. coli BL-21
T2 sequence (O60664 1-434 I56V/V275A): T1 sequence (O60664 1-434 I56V/V275A)
Experimental: 2 μM 3-(3,5-ditritium-4-azidophenyl)-5-(3-chloro-thiophen-2-yl)-[1,2,4]-oxadiazole (Example 3) was added to either Protein A Sepharose only, Protein A Sepharose plus anti-GST antibody, anti-GST/Protein A Sepharose plus GST only, or anti-GST/Protein A Sepharose plus GST-Tip47. After TBS washes, eluate was counted on a scintillation counter.
Full-length Tip47 cDNA was cloned into the pGEX-4T-1, a glutathione S-transferase (GST) gene fusion system (Amersham, Piscataway, N.J.) using standard methods. Briefly, PCR primers to the 5′ and 3′ region of the gene were designed to contain restriction sites that allowed for the in frame cloning of Tip47 into the pGEX-4T-1 vector. Subsequent to sequence verification, the pGEX-Tip47 construct was transformed into the E.Coli BL-21 strain.
In order to perform binding studies on Tip47, GST-Tip47 was immobilized on Sepharose. To begin, 10 μg of anti-GST antibody (cat. # sc-459, rabbit polyclonal, Santa Cruz Biotechnology, Santa Cruz, Calif.) was incubated with 20 μl of protein A Sepharose (Zymed, South San Francisco, Calif.), in TBS (pH 8.0), total volume 200 μl, for 1 hour at room temperature. Beads were washed 3 times with TBS (pH 8.0). […] Eluates were added to 5 ml of scintillation cocktail and counted using ^3H protocol. […]

Tip47 = biological target: T3, Tip47 (Homo sapiens, UniProt O60664, I56V/V275A); assay: Photolabeling of T47D cytosol, immunoprecipitation with anti-Tip47, SDS-PAGE and autoradiography; type: binding; settings: T47D cytosol labeled with 20 nM compound, UV 254 nm, anti-fibronectin as control, FIG. 1B
T3 construct: This supernatant is T47D cytosol; endogenous in cells; host or cells: T47D breast cancer cells
T3 sequence (O60664 1-434 I56V/V275A): T1 sequence (O60664 1-434 I56V/V275A)
Experimental: T47D cytosol was labeled with 20 nM 3-(3,5-ditritium-4-azidophenyl)-5-(3-chloro-thiophen-2-yl)-[1,2,4]-oxadiazole (Example 3) and immunoprecipitated with anti-fibronectin (as a control) or anti-Tip47. The immunoprecipitated complex was subject to SDS-PAGE and autoradiography.
For immunoprecipitations, T47D cells were first washed in PBS and then resuspended in CLB Buffer (10 mM HEPES, 10 mM NaCl, 1 mM KH2PO4, 5 mM NaHCO3, 1 mM CaCl2, 0.5 mM MgCl2, 5 mM EDTA) plus 0.1% protease inhibitor cocktail (Sigma, St. Louis, Mo.). Cells were allowed to swell in 5 minutes at room temperature and then were homogenized in a tight fitting Dounce homogenizer with 50 strokes. Lysate was spun 2,200×g, 5 minutes, at 4° C. The supernatant was then spun at 100,000×g, 40 minutes at 4° C. This resulting supernatant was called T47D cytosol. Protein concentration determined by the D/C Protein Assay (Bio-Rad, Hercules, Calif.).
20 riM 3-(3,5-ditritium-4-azidophenyl)-5-(3-chloro-thiophen-2-yl)-[1,2,4]-oxadiazole (Example 3) (stock is 20 μM, 1 mCi/ml, 50 Ci/mmol) was added to 1 mg T47D cytosol in 1 ml CLB Buffer and incubated, rocking, for 30 minutes at room temperature. Lysates were then exposed to a Short Wave UV Source (254 nm) for 10 minutes.
Labeled lysates were pre-cleared with 50 μl solution of Protein A Sepharose (Zymed, South San Francisco, Calif.) for 2 hours at 4° C. […]

cyclin D1 = assay: Realtime PCR of mRNA levels in compound-treated T47D cells; type: cell-based; settings: 5 μM, 18 h, versus DMSO, FIG. 2
Experimental: FIG. 2: The effect of 5-(3-chlorothiophen-2-yl)-3-(5-chloro-pyridin-2-yl)-[1,2,4]-oxadiazole on mRNA levels of genes of interest. T47D cells were treated for 18 h with 5 μM of 5-(3-chlorothiophen-2-yl)-3-(5-chloro-pyridin-2-yl)-[1,2,4]-oxadiazole or DMSO and total RNA was then isolated. mRNA levels of TGFbeta, p21, cyclin D1, IGF2R, and IGFBP3 were quantitated using realtime PCR as fold change of treatment/control.
For cDNA synthesis and quantitative PCR, total RNA was extracted using the TRIzol reagent (Invitrogen Corporation, Carlsbad, Calif.) according to the manufacturer's instructions. Total RNA was quantitated, denatured, and electrophoresed in an agarose-formaidehyde gei to determine integrity of total RNA. 2 μg of total RNA was then used to make cDNA by reverse transcription using the Retroscript cDNA synthesis kit (Ambion Austin, Tex.) according to the manufacturer's instructions. Quantitative PCR was done by Sybrgreen incorporation using the Quantitect kit (Qiagen, Valencia, Calif.) on the LightCycler (Roche Molecular Biochemicals, Mannheim, Germany) using standard conditions. Data was normalized against the housekeeping gene, cyclophilin. The cells transfected with cyclophilin as a control was normalized against glyceraldehyde phosphate dehydrogenase (GAPD).

Compound: [N-]=[N+]=Nc1ccc(-c2noc(-c3sccc3Cl)n2)cc1 [3-(4-Azidophenyl)-5-(3-chloro-thiophen-2-yl)-[1,2,4]-oxadiazole]
- Activation of the caspase cascade and of apoptosis (caspase cascade [1]): potent and highly efficacious activators of the caspase cascade
- Time to induction of apoptosis in cells upon binding to TIPRAIP (caspase cascade [2]): 24 to 48 h

Compound: [3H]c1cc(-c2noc(-c3sccc3Cl)n2)cc([3H])c1N=[N+]=[N-] [Example 3, 3-(3,5 -Ditritium-4-azidophenyl)-5-(3-chloro-thiophen-2-yl)-[1,2,4]-oxadiazole]
- Radiolabeled protein on 2-D gel autoradiography (Tail Interacting Protein): single radiolabeled spot
- Binding to GST-Tip47 immobilized on α-GST-Protein A-Sepharose (GST-Tip47): binding to GST-Tip47
- Binding to immunoprecipitated Tip47 from cell lysates (Tip47): binding to immunoprecipitated Tip47

Compound: Clc1ccc(-c2noc(-c3sccc3Cl)n2)nc1 [compound A, 5-(3-chlorothiophen-2-yl)-3-(5-chloro-pyridin-2-yl)-[1,2,4]-oxadiazole]
- Gene expression profile: cyclin D1 mRNA level (cyclin D1): down regulation of cyclin D1
